From patent US20180200257A1, “METHODS FOR THE TREATMENT OF INFLAMMATORY DISORDERS” (Galapagos NV, priority 2015, published 2018)

Key:
[1] = tested on: subjects with moderately to severely active RA who have an inadequate response to methotrexate (MTX); test: Study 2 (monotherapy) - DAS28(CRP) scores; type: in vivo, human
Description: (§1) Randomized, double-blind, placebo-controlled, multicenter, phase IIb dose finding study of Compound 1 (dosed as a [Compound 1:HCl:3H2O]) administered for 24 weeks as monotherapy to subjects with moderately to severely active rheumatoid arthritis who have an inadequate response to methotrexate alone
(§2) Double-blind, placebo-controlled, monotherapy study in subjects with moderately to severely active RA who have an inadequate response to methotrexate (MTX) (oral or parenteral).
(§3) 280 subjects randomized to one of 3 doses of Compound 1 (dosed as a [Compound 1:HCl:3H2O]) or to placebo, given once daily (q.d.).
(§4) Twelve weeks of treatment with Compound 1 (dosed as a [Compound 1:HCl:3H2O]) at 50 mg, 100 mg, or 200 mg q.d.; or placebo. At Week 12, all subjects on placebo and the subjects on the 50 mg dose who have not achieved 20% improvement in swollen joint count (SJC66) and tender joint count (TJC68) will be assigned to 100 mg q.d. in a blinded fashion and will continue treatment until Week 24. Subjects in the other groups will maintain their randomized treatment until Week 24.
The (DAS28(CRP)) is a system developed and validated by the European League Against Rheumatism (EULAR) to measure the progress and improvement of rheumatoid arthritis and has been extensively validated (Wells et al., 2008). The DAS28(CRP) scoring includes a 28 tender and swollen joint count, CRP measurement from blood analysis, and a general health assessment on a visual analog scale (Fransen et al., 2003).
DAS28(CRP) values range from 2.0 to 10.0, and more particularly reflect the following status: • Remission: DAS28(CRP) ≤2.6 • Low Disease activity: 2.6 <DAS28(CRP) ≤3.2 • Moderate Disease Activity: 3.2 <DAS28(CRP) ≤5.1 • High Disease Activity: DAS28(CRP) >5.1
In practice, the DAS28(CRP) measurement involves the evaluation 28 different joints including in the measurement (proximal interphalangeal joints (10 joints), metacarpophalangeal joints (10), wrists (2), elbows (2), shoulders (2), and knees (2)). When looking at these joints, both the number of joints with tenderness upon touching and swelling are counted.
Secondly, C-reactive protein level is measured.
Finally, the patient makes a subjective assessment of disease activity during the preceding 7 days on a scale between 0 and 100, where 0 is “no activity” and 100 is “highest activity possible”.
The DAS28(CRP) score is then calculated as follows:
Firstly, the patient is asked to make a vertical mark on a 100 mm Visual Analog Scale (VAS) corresponding to their general health or global disease activity on a touch screen to measure the VAS value, which is used in the formula below.
Secondly, a swollen and tender joint examination is then performed on the patient. The swollen and tender joints are recorded. From this examination are obtained the total amount of swollen joints (SJC) and the total amount of tender joints (TJC), which are used in the formula below.
Thirdly, C-reactive protein (CRP) levels are measured.
Finally, the values obtained above (VAS, TJC28, SJC28, and CRP) are computed into the following Formula to obtain the DAS28(CRP) score.
DAS28(CRP)=0.56*√{square root over (TJC28)}+0.28√{square root over (SJC28)}+[…] ln(CRP+1)+0.014*VAS
The improvement (decreases) in the DAS28(CRP) scores for each patient group at weeks 1, 2, 4, 8 and 12 is shown in Table LXXXVII and Table LXXXVIII below, together with the Hommel-corrected p-value for the pairwise comparisons of each group with placebo.
The number of subjects (N) provided in each groups corresponds to the number of subjects starting the study in each group, and the DAS28 (CRP) data reported below corresponds to the responding subjects continuing for the entire 24 weeks on their initial treatment course.

[2] = tested on: subjects with moderately to severely active RA who have an inadequate response to methotrexate (MTX); test: Study 2 (monotherapy) - serum CRP values; type: in vivo, human
Description: as §1, §2, §3, §4
CRP determination is available at Quest Diagnostics, Clinical Trials, Quest House, 125-135 Staines Road, Hounslow, Middlesex, TW3 3JB, United Kingdom under Catalogue n#86140.
The determination of CRP is made using Immunoturbidimetric assay for the in vitro quantitative determination of CRP in human serum and plasma on Roche/Hitachi cobas c systems, wherein human CRP agglutinates with latex particles coated with monoclonal anti-CRP antibodies. The aggregates are determined turbidimetrically (Eda et al., 1998; Price et al., 1987).
Human serum and plasma samples CRP determination was done on a Roche/Hitachi Cobas c 301 c 501/502 system which automatically calculate the analyte concentration of each sample. Samples containing precipitates are centrifuged before performing the assay.
The machine parameters are listed in Table XCI and Table XCII below, and the results at 12 weeks v using either LOCF are shown in Table XCIII and below. The Hommel-corrected p-value for the pairwise comparisons of each group with placebo is shown.
The number of subjects (N) provided in each groups corresponds to the number of subjects starting the study in each group, and the CRP data reported below corresponds to the responding subjects continuing for the entire 24 weeks on their initial treatment course.

[3] = 50 mg q.d., week 1, 12 weeks results
[4] = 50 mg q.d., week 2, 12 weeks results
[5] = 50 mg q.d., week 4, 12 weeks results
[6] = 50 mg q.d., week 12, 12 weeks results
[7] = 50 mg q.d., week 8, 12 weeks results
[8] = 100 mg q.d., week 1, 12 weeks results
[9] = 100 mg q.d., week 2, 12 weeks results
[10] = 100 mg q.d., week 4, 12 weeks results
[11] = 100 mg q.d., week 12, 12 weeks results
[12] = 100 mg q.d., week 8, 12 weeks results
[13] = 200 mg q.d., week 1, 12 weeks results
[14] = 200 mg q.d., week 2, 12 weeks results
[15] = 200 mg q.d., week 4, 12 weeks results
[16] = 200 mg q.d., week 12, 12 weeks results
[17] = 200 mg q.d., week 8, 12 weeks results

SMILES: O=C(Nc1nc2cccc(-c3ccc(CN4CCS(=O)(=O)CC4)cc3)n2n1)C1CC1 [Compound 1, cyclopropanecarboxylic acid {5-[4-(1,1-dioxo-thiomorpholin-4-ylmethyl)-phenyl]-[1,2,4]triazolo[1,5-a]pyridin-2-yl}-amide]
- DAS28(CRP) mean CFB (LOCF) [1, 3]: −0.70
- DAS28(CRP) mean CFB (LOCF) [1, 4]: −0.97
- DAS28(CRP) mean CFB (LOCF) ([1]; 50 mg q.d., week 2, 24 weeks results): −1.03
- DAS28(CRP) mean CFB (LOCF) [1, 5]: −1.37
- DAS28(CRP) mean CFB (LOCF) ([1]; 50 mg q.d., week 4, 24 weeks results): −1.43
- DAS28(CRP) mean CFB (LOCF) [1, 6]: −1.69
- % patients reaching low disease activity and/or remission at week 12 (LOCF) ([1]; 50 mg q.d., 12 weeks results): 24%
- % patients reaching low disease activity at week 12 (LOCF) ([1]; 50 mg q.d., 12 weeks results): 13%
- % patients reaching remission at week 12 (LOCF) ([1]; 50 mg q.d., 12 weeks results): 11%
- % patients reaching low disease activity and/or remission at week 24 (LOCF) ([1]; 50 mg q.d., 24 weeks results): 36%
- % patients reaching low disease activity at week 24 (LOCF) ([1]; 50 mg q.d., 24 weeks results): 17%
- % patients reaching remission at week 24 (LOCF) ([1]; 50 mg q.d., 24 weeks results): 19%
- DAS28(CRP) mean CFB (LOCF) [1, 7]: −1.65
- DAS28(CRP) mean CFB (LOCF) ([1]; 50 mg q.d., week 8, 24 weeks results): −1.71
- DAS28(CRP) mean CFB (LOCF) [1, 8]: −0.88
- DAS28(CRP) mean CFB (LOCF) [1, 9]: −1.04
- DAS28(CRP) mean CFB (LOCF) ([1]; 100 mg q.d., week 2, 24 weeks results): −1.04
- DAS28(CRP) mean CFB (LOCF) [1, 10]: −1.50
- DAS28(CRP) mean CFB (LOCF) ([1]; 100 mg q.d., week 4, 24 weeks results): −1.48
- DAS28(CRP) mean CFB (LOCF) [1, 11]: −2.04
- % patients reaching low disease activity and/or remission at week 12 (LOCF) ([1]; 100 mg q.d., 12 weeks results): 28%
- % patients reaching low disease activity at week 12 (LOCF) ([1]; 100 mg q.d., 12 weeks results): 13%
- % patients reaching remission at week 12 (LOCF) ([1]; 100 mg q.d., 12 weeks results): 14%
- % patients reaching low disease activity and/or remission at week 24 (LOCF) ([1]; 100 mg q.d., 24 weeks results): 50%
- % patients reaching low disease activity at week 24 (LOCF) ([1]; 100 mg q.d., 24 weeks results): 29%
- % patients reaching remission at week 24 (LOCF) ([1]; 100 mg q.d., 24 weeks results): 21%
- DAS28(CRP) mean CFB (LOCF) [1, 12]: −1.91
- DAS28(CRP) mean CFB (LOCF) [1, 13]: −1.15
- DAS28(CRP) mean CFB (LOCF) [1, 14]: −1.54
- DAS28(CRP) mean CFB (LOCF) ([1]; 200 mg q.d., week 2, 24 weeks results): −1.55
- DAS28(CRP) mean CFB (LOCF) [1, 15]: −1.87
- DAS28(CRP) mean CFB (LOCF) ([1]; 200 mg q.d., week 4, 24 weeks results): −1.87
- DAS28(CRP) mean CFB (LOCF) [1, 16]: −2.33
- % patients reaching low disease activity and/or remission at week 12 (LOCF) ([1]; 200 mg q.d., 12 weeks results): 45%
- % patients reaching low disease activity at week 12 (LOCF) ([1]; 200 mg q.d., 12 weeks results): 28%
- % patients reaching remission at week 12 (LOCF) ([1]; 200 mg q.d., 12 weeks results): 17%
- % patients reaching low disease activity and/or remission at week 24 (LOCF) ([1]; 200 mg q.d., 24 weeks results): 46%
- % patients reaching low disease activity at week 24 (LOCF) ([1]; 200 mg q.d., 24 weeks results): 19%
- % patients reaching remission at week 24 (LOCF) ([1]; 200 mg q.d., 24 weeks results): 28%
- DAS28(CRP) mean CFB (LOCF) [1, 17]: −2.24
- CRP mean CFB mg/L (LOCF) [2, 3]: -3.70 mg/L
- CRP mean CFB mg/L (LOCF) [2, 4]: -4.16 mg/L
- CRP mean CFB mg/L (LOCF) [2, 5]: -9.46 mg/L
- CRP mean CFB mg/L (LOCF) [2, 6]: -4.43 mg/L
- CRP mean CFB mg/L (LOCF) [2, 7]: -11.16 mg/L
- CRP mean CFB mg/L (LOCF) [2, 8]: -10.33 mg/L
- CRP mean CFB mg/L (LOCF) [2, 9]: -8.67 mg/L
- CRP mean CFB mg/L (LOCF) [2, 10]: -12.08 mg/L
- CRP mean CFB mg/L (LOCF) [2, 11]: -12.25 mg/L
- CRP mean CFB mg/L (LOCF) [2, 12]: -14.17 mg/L
- CRP mean CFB mg/L (LOCF) [2, 13]: -12.58 mg/L
- CRP mean CFB mg/L (LOCF) [2, 14]: -13.28 mg/L
- CRP mean CFB mg/L (LOCF) [2, 15]: -13.04 mg/L
- CRP mean CFB mg/L (LOCF) [2, 16]: -14.85 mg/L
- CRP mean CFB mg/L (LOCF) [2, 17]: -13.86 mg/L
